# In US20230265151A1, “GIP/GLP1 CO-AGONIST COMPOUNDS” (priority 2020, published 2023):
# Read-outs that look alike come from different tables or passages of the source. *1 amine or outer side, *2 acyl side, *3 side chain or, on linkers, in order; H or OH if unused. Where a SMILES comes first, the peptide text is derived from it. Side-chain parts run from the residue outwards. [ ]: non-standard residue; d: D form. The star is where a group is joined. Decanoyl(10-(4-HOOC-PhO)) = O=C(O)c1ccc(OCCCCCCCCCC(=O)*)cc1; αMePhe(2-F) = C[C@](N)(Cc1ccccc1F)C(=O)O; γGlu = O=C(O)[C@H](CCC(=O)[*:2])N[*:1]; αMeY = C[C@](N)(Cc1ccc(O)cc1)C(=O)O; 4Pal = N[C@@H](Cc1ccncc1)C(=O)O; αMeL = CC(C)C[C@](C)(N)C(=O)O; Orn = NCCC[C@H](N)C(=O)O; AEEA = NCCOCCOCC(=O)O; Aib = CC(C)(N)C(=O)O
# Tests used:
# Assay type in all cases: cell-based
# [1] = target: hGLP-1R (Homo sapiens, UniProt P43220); test: Functional cAMP formation (HTRF) in HEK-293 clonal cells expressing hGLP-1R, 0.1% bovine casein, without or with 1.0% human serum albumin; design: expressed in transfected cells; details: for EC50: geometric mean
# hGLP-1R, sequence (P43220 24-463): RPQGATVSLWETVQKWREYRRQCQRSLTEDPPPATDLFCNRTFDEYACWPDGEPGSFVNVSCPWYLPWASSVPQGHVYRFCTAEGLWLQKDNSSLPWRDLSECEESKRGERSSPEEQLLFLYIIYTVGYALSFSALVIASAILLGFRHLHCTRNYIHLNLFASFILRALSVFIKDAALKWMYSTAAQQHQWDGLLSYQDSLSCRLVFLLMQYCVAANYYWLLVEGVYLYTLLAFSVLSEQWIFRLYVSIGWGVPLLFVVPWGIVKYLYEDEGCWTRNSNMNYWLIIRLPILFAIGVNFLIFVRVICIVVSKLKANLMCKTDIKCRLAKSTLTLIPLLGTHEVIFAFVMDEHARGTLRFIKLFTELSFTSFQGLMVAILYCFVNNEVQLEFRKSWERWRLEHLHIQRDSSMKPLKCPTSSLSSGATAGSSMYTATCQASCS
# In short: (§1)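 Cells were stimulated with peptide for 30 min at 37° C, then intracellular cAMP was measured by competitive HTRF (665/620 nm ratio) and converted to nM using a cAMP standard curve. Relative EC50 and Emax came from four-parameter logistic fits of percent maximal response against peptide concentration.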
# [2] = target: T1, hGCGR (Homo sapiens, UniProt P47871); test: Functional cAMP formation (HTRF) in HEK-293 clonal cells expressing hGCGR, 0.1% bovine casein, without or with 1.0% human serum albumin
# T1 construct: expressed in transfected cells
# T1 sequence (P47871 26-477): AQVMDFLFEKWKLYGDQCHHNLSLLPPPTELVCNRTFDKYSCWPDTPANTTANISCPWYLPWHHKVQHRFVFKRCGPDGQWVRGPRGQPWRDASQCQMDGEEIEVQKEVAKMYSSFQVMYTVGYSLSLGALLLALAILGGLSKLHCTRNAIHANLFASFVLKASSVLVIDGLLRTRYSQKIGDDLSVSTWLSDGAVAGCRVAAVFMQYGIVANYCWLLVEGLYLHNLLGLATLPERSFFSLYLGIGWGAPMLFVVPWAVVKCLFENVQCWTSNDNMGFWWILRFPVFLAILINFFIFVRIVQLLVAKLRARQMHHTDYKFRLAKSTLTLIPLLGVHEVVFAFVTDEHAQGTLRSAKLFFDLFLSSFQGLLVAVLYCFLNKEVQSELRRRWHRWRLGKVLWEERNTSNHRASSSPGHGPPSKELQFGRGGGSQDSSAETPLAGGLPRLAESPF
# In short: as §1
# [3] = target: T2, hGIPR (Homo sapiens, UniProt P48546); test: Functional cAMP formation (HTRF) in HEK-293 clonal cells expressing hGIPR, 0.1% bovine casein, without or with 1.0% human serum albumin; details: for EC50: cAMP
# T2 construct: expressed in transfected cells
# T2 sequence (P48546 22-466): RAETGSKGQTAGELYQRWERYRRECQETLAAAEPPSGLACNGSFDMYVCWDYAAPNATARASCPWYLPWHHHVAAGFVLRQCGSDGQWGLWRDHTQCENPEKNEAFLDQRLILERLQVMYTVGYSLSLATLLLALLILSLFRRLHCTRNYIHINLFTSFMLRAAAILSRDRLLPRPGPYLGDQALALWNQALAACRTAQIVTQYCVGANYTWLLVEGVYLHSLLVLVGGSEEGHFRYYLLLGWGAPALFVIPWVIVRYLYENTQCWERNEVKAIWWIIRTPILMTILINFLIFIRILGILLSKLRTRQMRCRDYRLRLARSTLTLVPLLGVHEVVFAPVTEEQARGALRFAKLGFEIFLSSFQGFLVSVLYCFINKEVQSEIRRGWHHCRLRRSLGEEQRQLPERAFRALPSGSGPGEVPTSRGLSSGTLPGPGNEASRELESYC
# In short: as §1
# [4] = HEK293, cAMP, 37° C., 0.1% bovine casein and 1.0% human serum albumin, percent of maximal response to GLP-1(7-36)NH2, read-out: hGLP-1R Emax, % ± SEM
# [5] = HEK293, cAMP, 37° C., 0.1% bovine casein, percent of maximal response to GLP-1(7-36)NH2, arithmetic mean, read-out: hGLP-1R Emax, % ± SEM
# [6] = cAMP, 37° C., 0.1% bovine casein (no human serum albumin), read-out: hGLP-1R EC50, nM (SEM, n)
# [7] = cAMP, 37° C., 0.1% bovine casein (no human serum albumin), geometric mean, read-out: hGCGR EC50, nM (SEM, n)
# [8] = cAMP, 37° C., 0.1% bovine casein and 1.0% human serum albumin, geometric mean (SEM, n), read-out: hGCGR EC50, nM (SEM, n)
# [9] = HEK293, cAMP, 37° C., 0.1% bovine casein and 1.0% human serum albumin, percent of maximal response to GIP(1-42)NH2, read-out: hGIPR Emax, % ± SEM
# [10] = HEK293, cAMP, 37° C., 0.1% bovine casein, percent of maximal response to GIP(1-42)NH2, arithmetic mean, read-out: hGIPR Emax, % ± SEM
# [11] = 37° C., 0.1% bovine casein (no human serum albumin), geometric mean, read-out: hGIPR EC50, nM (SEM, n)
Compound,"Emax [1, 4] [%]","Emax [1, 5] [%]","EC50 [1, 6] [nM]","EC50 [2, 7] [nM]","EC50 [2, 8] [nM]","Emax [3, 9] [%]","Emax [3, 10] [%]","EC50 [3, 11] [nM]",other results
CC[C@H](C)[C@H](NC(=O)[C@H](CCCN)NC(=O)[C@H](CC(=O)O)NC(=O)[C@H](CC(C)C)NC(=O)[C@](C)(CC(C)C)NC(=O)[C@@H](NC(=O)C(C)(C)NC(=O)[C@@H](NC(=O)[C@H](CC(=O)O)NC(=O)[C@H](CO)NC(=O)[C@@H](NC(=O)[C@](C)(Cc1ccccc1F)NC(=O)[C@@H](NC(=O)CNC(=O)[C@H](CCC(=O)O)NC(=O)C(C)(C)NC(=O)[C@@H](N)Cc1ccc(O)cc1)[C@@H](C)O)[C@@H](C)O)C(C)C)[C@@H](C)CC)C(=O)N[C@@H](C)C(=O)N[C@@H](CCC(N)=O)C(=O)NC(C)(C)C(=O)N[C@@H](CCC(=O)O)C(=O)N[C@@H](Cc1ccccc1)C(=O)N[C@H](C(=O)N[C@@H](CCCCNC(=O)COCCOCCNC(=O)COCCOCCNC(=O)COCCOCCNC(=O)CC[C@H](NC(=O)CCCCCCCCCCCCC(=O)O)C(=O)O)C(=O)N[C@@](C)(Cc1ccc(O)cc1)C(=O)N[C@@H](CC(C)C)C(=O)N[C@H](C(=O)N[C@@H](CCCCNC(=O)COCCOCCNC(=O)COCCOCCNC(=O)COCCOCCNC(=O)CC[C@H](NC(=O)CCCCCCCCCCCCC(=O)O)C(=O)O)C(=O)NCC(=O)NCC(=O)N1CCC[C@H]1C(=O)N[C@@H](CO)C(=O)N[C@@H](CO)C(=O)NCC(=O)N[C@@H](C)C(=O)N1CCC[C@H]1C(=O)N1CCC[C@H]1C(=O)N1CCC[C@H]1C(=O)N[C@@H](CO)C(N)=O)[C@@H](C)CC)[C@@H](C)CC [Example 344],96.5,100,0.336,> 9950,> 9950,87.3,97.9,0.0174,"EC50 ([3]; 37° C., 0.1% bovine casein and 1.0% human serum albumin, geometric mean (SEM, n), read-out: hGIPR EC50, nM (SEM, n)): 6.78 nM"
CC[C@H](C)[C@H](NC(=O)[C@H](CC(C)C)NC(=O)[C@](C)(Cc1ccc(O)cc1)NC(=O)[C@@H](CCC(=O)O)NC(=O)[C@@H](NC(=O)[C@H](Cc1ccccc1)NC(=O)[C@H](CCC(=O)O)NC(=O)C(C)(C)NC(=O)[C@H](CCC(N)=O)NC(=O)[C@H](C)NC(=O)[C@H](CCCCNC(=O)COCCOCCNC(=O)COCCOCCNC(=O)CC[C@H](NC(=O)CCCCCCCCCCCCC(=O)O)C(=O)O)NC(=O)[C@H](CCCN)NC(=O)[C@H](CC(=O)O)NC(=O)[C@H](CC(C)C)NC(=O)[C@](C)(CC(C)C)NC(=O)[C@@H](NC(=O)[C@H](CO)NC(=O)[C@H](Cc1ccncc1)NC(=O)[C@H](CC(=O)O)NC(=O)[C@H](CO)NC(=O)[C@@H](NC(=O)[C@](C)(Cc1ccccc1F)NC(=O)[C@@H](NC(=O)CNC(=O)[C@H](CCC(=O)O)NC(=O)C(C)(C)NC(=O)[C@@H](N)Cc1ccc(O)cc1)[C@@H](C)O)[C@@H](C)O)[C@@H](C)CC)[C@@H](C)CC)C(=O)N[C@@H](CCC(=O)O)C(=O)NCC(=O)NCC(=O)N[C@@H](CCCCNC(=O)COCCOCCNC(=O)COCCOCCNC(=O)CC[C@H](NC(=O)CCCCCCCCCCCCC(=O)O)C(=O)O)C(=O)N[C@@H](CO)C(=O)N[C@@H](CO)C(=O)NCC(=O)N[C@@H](C)C(=O)N1CCC[C@H]1C(=O)N1CCC[C@H]1C(=O)N1CCC[C@H]1C(=O)N[C@@H](CCCN)C(N)=O [Example 154],–,–,–,–,–,–,–,–,"EC50 ([1]; 0.1% bovine casein and 1.0% human serum albumin, 37° C., read-out: hGLP-1R EC50, nM (SEM, n)): 70.5 nM; EC50 ([1]; cAMP, incubated at 37° C., 0.1% bovine casein (no human serum albumin), read-out: hGLP-1R EC50, nM (SEM, n)): 1.69 nM; EC50 ([2]; 0.1% bovine casein and 1.0% human serum albumin, 37° C., geometric mean, read-out: hGCGR EC50, nM (SEM, n)): > 9950 nM; EC50 ([2]; cAMP, incubated at 37° C., 0.1% bovine casein (no human serum albumin), geometric mean, read-out: hGCGR EC50, nM (SEM, n)): > 9950 nM; Emax ([3]; HEK293, 0.1% bovine casein and 1.0% human serum albumin, 37° C., percent of maximal response to GIP(1-42)NH2, read-out: hGIPR Emax, % ± SEM): 93 ± 4.96%; Emax ([3]; HEK293, percent of maximal response to GIP(1-42)NH2, 37° C., 0.1% bovine casein, arithmetic mean, read-out: hGIPR Emax, % ± SEM): 96.6 ± 3.26%"
CC[C@H](C)[C@H](NC(=O)[C@H](CCCN)NC(=O)[C@H](CC(=O)O)NC(=O)[C@H](CC(C)C)NC(=O)[C@](C)(CC(C)C)NC(=O)[C@@H](NC(=O)C(C)(C)NC(=O)[C@H](Cc1ccncc1)NC(=O)[C@H](CC(=O)O)NC(=O)[C@H](CO)NC(=O)[C@@H](NC(=O)[C@](C)(Cc1ccccc1F)NC(=O)[C@@H](NC(=O)CNC(=O)[C@H](CCC(=O)O)NC(=O)C(C)(C)NC(=O)[C@@H](N)Cc1ccc(O)cc1)[C@@H](C)O)[C@@H](C)O)[C@@H](C)CC)C(=O)N[C@@H](C)C(=O)N[C@@H](CCC(N)=O)C(=O)NC(C)(C)C(=O)N[C@@H](CCCCNC(=O)COCCOCCNC(=O)CC[C@H](NC(=O)CCCCCCCCCCCCC(=O)O)C(=O)O)C(=O)N[C@@H](Cc1ccccc1)C(=O)N[C@H](C(=O)N[C@H](CCC(=O)O)C(=O)N[C@@](C)(Cc1ccc(O)cc1)C(=O)N[C@@H](CC(C)C)C(=O)N[C@H](C(=O)N[C@@H](CCCCNC(=O)COCCOCCNC(=O)CC[C@H](NC(=O)CCCCCCCCCCCCC(=O)O)C(=O)O)C(=O)NCC(=O)NCC(=O)N1CCC[C@H]1C(=O)N[C@@H](CO)C(=O)N[C@@H](CO)C(=O)NCC(=O)N[C@@H](C)C(=O)N1CCC[C@H]1C(=O)N1CCC[C@H]1C(=O)N1CCC[C@H]1C(=O)N[C@@H](CO)C(N)=O)[C@@H](C)CC)[C@@H](C)CC [Example 340],112,105,0.409,> 9950,> 9950,87.9,95.2,0.0206,–
CC[C@H](C)[C@H](NC(=O)[C@H](CCCN)NC(=O)[C@H](CC(=O)O)NC(=O)[C@H](CC(C)C)NC(=O)[C@](C)(CC(C)C)NC(=O)[C@@H](NC(=O)C(C)(C)NC(=O)[C@H](Cc1ccncc1)NC(=O)[C@H](CC(=O)O)NC(=O)[C@H](CO)NC(=O)[C@@H](NC(=O)[C@](C)(Cc1ccccc1F)NC(=O)[C@@H](NC(=O)CNC(=O)[C@H](CCC(=O)O)NC(=O)C(C)(C)NC(=O)[C@@H](N)Cc1ccc(O)cc1)[C@@H](C)O)[C@@H](C)O)[C@@H](C)CC)C(=O)N[C@@H](C)C(=O)N[C@@H](CCC(N)=O)C(=O)NC(C)(C)C(=O)N[C@@H](CCCCNC(=O)COCCOCCNC(=O)COCCOCCNC(=O)CC[C@H](NC(=O)CCCCCCCCCOc1ccc(C(=O)O)cc1)C(=O)O)C(=O)N[C@@H](Cc1ccccc1)C(=O)N[C@H](C(=O)N[C@H](CCC(=O)O)C(=O)N[C@@](C)(Cc1ccc(O)cc1)C(=O)N[C@@H](CC(C)C)C(=O)N[C@H](C(=O)N[C@@H](CCC(=O)O)C(=O)NCC(=O)NCC(=O)N1CCC[C@H]1C(=O)N[C@@H](CO)C(=O)N[C@@H](CO)C(=O)NCC(=O)N[C@@H](C)C(=O)N1CCC[C@H]1C(=O)N1CCC[C@H]1C(=O)N1CCC[C@H]1C(=O)N[C@@H](CO)C(=O)N[C@@H](CCCCNC(=O)COCCOCCNC(=O)COCCOCCNC(=O)CC[C@H](NC(=O)CCCCCCCCCOc1ccc(C(=O)O)cc1)C(=O)O)C(N)=O)[C@@H](C)CC)[C@@H](C)CC [Example 248] (H-Y[Aib]EGT[αMePhe(2-F)]TSD[4Pal][Aib]I[αMeL]LD[Orn]IAQ[Aib]K([AEEA-AEEA-γGlu-Decanoyl(10-(4-HOOC-PhO))])FI[dE][αMeY]LIEGGPSSGAPPPSK([AEEA-AEEA-γGlu-Decanoyl(10-(4-HOOC-PhO))])-NH2; N-terminus assumed),–,–,–,–,–,–,–,–,"Emax ([1]; HEK293, read-out: hGLP-1R Emax, % ± SEM, percent of maximal response to GLP-1(7-36)NH2, 37° C., 0.1% bovine casein, arithmetic mean): 89.1%; EC50 ([1]; hGLP-1R EC50, nM (SEM, n), 0.1% bovine casein and 1.0% human serum albumin, 37° C.): 56.7 nM; EC50 ([1]; hGLP-1R EC50, nM (SEM, n), cAMP, incubated at 37° C., 0.1% bovine casein (no human serum albumin)): 0.537 nM; EC50 ([2]; hGCGR EC50, nM (SEM, n), 0.1% bovine casein and 1.0% human serum albumin, 37° C., geometric mean): > 9950 nM; EC50 ([2]; hGCGR EC50, nM (SEM, n), cAMP, incubated at 37° C., 0.1% bovine casein (no human serum albumin), geometric mean): > 9950 nM; Emax ([3]; HEK293, read-out: hGIPR Emax, % ± SEM, 0.1% bovine casein and 1.0% human serum albumin, 37° C., percent of maximal response to GIP(1-42)NH2): 91.8%; EC50 ([3]; hGIPR EC50, nM (SEM, n), incubated at 37° C., 0.1% bovine casein (no human serum albumin), geometric mean): 0.0176 nM"
